The subject of assay [1] is inducible nitric oxide synthase (iNOS). In words: In vivo iNOS mRNA expression (quantitative PCR). On the set-up: species or system Swiss Webster male mice. As to conditions: mice, FIG. 10A. The method, then: To determine gene induction patterns over time, twenty four Swiss Webster male mice (30-32 g) were obtained from Simonsen, Inc. and treated by oral gavage with a 4 ml/kg volume of either 0.5% carboxymethyl cellulose (CMC; Sigma-Aldrich, St. Louis Mo.) (0 mg/kg/day) or […] compound B (25 mg/ml in 0.5% CMC) (100 mg/kg). At 4, 8, 16, 24, 48, or 72 hours after the final dose, animals were anesthetized with isoflurane. The mice were then sacrificed and tissue samples of kidney, liver, brain, lung, and heart were isolated and stored in RNALATER solution (Ambion) at −80° C.
To investigate the dose response of compounds of the present invention, twelve Swiss Webster male mice (30-32 g) (obtained from Simonsen, Inc., Gilroy Calif.) were treated by oral gavage once per day for 4 days with a 4 ml/kg volume of either 0.5% carboxymethyl cellulose (CMC; Sigma-Aldrich, St. Louis Mo.), compound D (25 mg/ml in 0.5% CMC) (100 mg/kg/day), or compound B (7.5 and 25 mg/ml in 0.5% CMC) (30 and 100 mg/kg/day, respectively). Four hours after the final dose, animals were anesthetized, sacrificed, and approximately 150 mg of liver and each kidney were isolated and stored in RNALATER solution (Ambion) at −20° C.
Hypertension is a risk factor for diabetes and disorders and diseases associated with diabetes. The effects of compounds of the present invention on regulation of blood pressure were examined as follows. Animals were treated with compound B or compound D and RNA samples were prepared as described above in Example 4. […] Analysis of the relative level of gene expression was performed by quantitative PCR using a FASTSTART DNA MASTER SYBR GREEN I kit (Roche) and gene-specific primers, using a LIGHTCYCLER system (Roche), according to manufacturer's instructions. […]
The relative level of 18S ribosomal RNA gene expression was measured as a control. Quantitative PCR was performed using a QUANTITECT SYBR GREEN PCR kit (Qiagen) and gene-specific primers, using a LIGHTCYCLER system (Roche), according to manufacturer's instructions. […]

The test system of the next assay is HIF-1α. In words: HIF-1α stabilization in cells, TRANSAM HIF-1 ELISA of nuclear fractions. Type of assay: cell-based, Human. The note with it: epithelial cells (293A) and hepatocellular carcinoma (Hep3B); FIG. 12B. As to the method:
Stabilization of HIFα using compounds and methods of the present invention was examined as follows. Human cells derived from adenovirus-transformed fetal kidney epithelium (293A), cervical epithelial adenocarcinoma (HeLa), hepatocellular carcinoma (Hep3B), squamous carcinoma (SSC-25), and lung fibroblast (HLF) (see, e.g., American Type Culture Collection, Manassas Va.; and Qbiogene, Carlsbad Calif.) were separately seeded into 100 mm culture dishes and grown at 37° C., 20% O2, 10% CO2 in media as follows: HeLa cells in Dulbecco's Modification of Eagle's Medium (DMEM), 2% fetal bovine serum (FBS); HLF cells in DMEM, 10%FBS; 293A cells in DMEM, 5%FBS; and Hep3B cells in Minimal Essential Medium (MEM), Earle's BSS (Mediatech Inc., Herndon Va.), 2 mM L-glutamine, 0.1 mM non-essential amino acids, 1 mM sodium pyruvate, 10% FBS. When cell layers reached confluence, the media was replaced with OPTI-MEM media (Invitrogen Life Technologies, Carlsbad Calif.) and cell layers were incubated for approximately 24 hours in 20% O2, 10% CO2 at 37° C. Compound of the invention (one of compounds B, F, G, and H) or DMSO (0.5 to 1%) was then added to existing medium, and incubation was continued overnight.
Alternatively, nuclear fractions were prepared using a Nuclear Extract kit (Active Motif, Carlsbad Calif.) and were analyzed for HIF-1α using a TRANSAM HIF-1 ELISA kit (Active Motif) according to the manufacturer's instructions.
In general terms: An ELISA detects its analyte on a solid surface through an enzyme-linked reagent.

Regarding `O=C(O)CNC(=O)c1nc(Cl)c2ccccc2c1O` [compound B, [(1-Chloro4-hydroxy-isoquinoline-3-carbonyl)-amino]-acetic acid], the “dose dependence of iNOS induction” value in assay [1] (30 and 100 mg/kg/day oral gavage) is reported as “dose-dependent”. In addition, in assay [1] (oral gavage, within 8 hours following treatment, then returned to control levels, normalized to 18S rRNA), the “expression of the gene encoding iNOS” value was “increased”. In addition, the “HIFα stabilization and accumulation (ELISA) compared to vehicle-treated control cells” value with HIF-1α was “stabilization and accumulation of HIFα”.

For the origin of these results see US8124582B2, “Treatment of diabetes” (FibroGen, Inc., priority 2002, dated 2012).
